In patent US11071788B2, “Antibody drug conjugates of kinesin spindel protein (KSP) inhibitors with antiB7H3-antibodies” (BAYER PHARMA AKTIENGESELLSCHAFT, priority 2015, dated 2021):

Experiments:
[1] = Cell permeability flux assay using Caco-2 cells; type: in vitro ADME; conditions: human; Caco-2, 2 hours incubation
[2] = system: NCI-H292; assay: Cytotoxicity MTT assay, NCI-H292; type: cell-based, human; conditions: Homo sapiens, NCI-H292, MTT assay
Excerpt: (§1) Table 2 below lists the IC50 values of representative working examples from the assay described and the corresponding cytotoxicity data (MTT assay).

[3] = system: KPL4; assay: Cytotoxicity MTT assay, KPL4; type: cell-based; conditions: KPL4, MTT assay
Excerpt: as §1

[4] = system: MCF-7: human breast cancer cells, B7H3-positive; assay: CTG cytotoxicity assay of anti-B7H3 ADCs, MCF-7; type: cell-based; conditions: MCF7, 72 h incubation, growth inhibition vs day 0
Method: The cells were cultivated according to the standard method using the growth media listed under C-1. […] The cells were then incubated in an incubator at 37° C., and 5% carbon dioxide. In a parallel plate, the cell vitality was determined at the start of the drug treatment (day 0) using the Cell Titer Glow (CTG) Luminescent Cell Viability Assay (Promega #G7573 and #G7571). To this end, 100 μl of the substance were added per cell batch, the plates were then covered with aluminium foil, shaken on the plate shaker at 180 rpm for 2 minutes, allowed to stand on the laboratory bench for 8 minutes and then measured using a luminometer (Victor X2, Perkin Elmer). The substrate detects the ATP content in the living cells, generating a luminescence signal of which the height is directly proportional to the vitality of the cells. […] From the measured data, the IC^50 of the growth inhibition in comparison to day 0 was calculated using the DRC (dose response curve) analysis spreadsheet with a 4-parameter fit.

[5] = system: Raji: human Burkitt's lymphoma cells, B7H3-negative; assay: CTG cytotoxicity assay of anti-B7H3 ADCs, Raji; type: cell-based; conditions: 72 h incubation
Method: The analysis of the cytotoxic effects of the anti-B7H3 ADCs was carried out with various cell lines:
Raji: human Burkitt's lymphoma cells, DMSZ-ACC-319, standard medium: RPMI 1640; (Biochrom; # FG 1215, with stable glutamine)+10% FCS (Biochrom; # S0415), B7H3-negative.
The cells were cultivated by the standard method as stated by the American Tissue Culture Collection (ATCC) for the cell lines in question.
The cells were cultivated according to the standard method using the growth media listed under C-1. […] In a parallel plate, the cell vitality was determined at the start of the drug treatment (day 0) using the Cell Titer Glow (CTG) Luminescent Cell Viability Assay (Promega #G7573 and #G7571). To this end, 100 μl of the […] were added per cell batch, the plates were then covered with aluminium foil, shaken on the plate shaker at 180 rpm for 2 minutes, allowed to stand on the laboratory bench for 8 minutes and then measured using a luminometer (Victor X2, Perkin Elmer). The substrate detects the ATP content in the living cells, generating a luminescence signal of which the height is directly proportional to the vitality of the cells. […] From the measured data, the IC^50 of the growth inhibition in comparison to day 0 was calculated using the DRC (dose response curve) analysis spreadsheet with a 4-parameter fit. […]

Compound | Papp B→A at 2 h [1] [×10⁻⁶ cm/s] | IC50 [2] [nM] | IC50 [3] [nM] | IC50 [4] [nM] | IC50 [5] [nM]
CC(C)(C)[C@H](c1cc(-c2cc(F)ccc2F)cn1Cc1ccccc1)N(CC[C@H](N)C(=O)NCCNC(=O)CNC(=O)C[C@@H](SC[C@H](N)C(=O)O)C(=O)O)C(=O)CO (racemic) [Example M26, 4-[(2-{[2-({(2S)-2-Amino-4-[{(1R)-1-[1-benzyl-4-(2,5-difluorophenyl)-1H-pyrrol-2-yl]-2,2-dimethylpropyl}(glycoloyl)amino]butanoyl}amino)ethyl]amino}-2-oxoethyl)amino]-2-{[(2R)-2-amino-2-carboxyethyl]sulfanyl}-4-oxobutanoic acid-trifluoroacetic acid (1:1)] | 1.3 | 63.8 | – | – | –
CC(C)(C)[C@H](c1cc(-c2cc(F)ccc2F)cn1Cc1ccccc1)N(CC[C@H](N)C(=O)NC(CCC(=O)O)C(=O)O)C(=O)CO.O=C(O)C(F)(F)F (stereo in doubt) [Example M25, N-{(2S)-2-Amino-4-[{(1R)-1-[1-benzyl-4-(2,5-difluorophenyl)-1H-pyrrol-2-yl]-2,2-dimethylpropyl}(glycoloyl)amino]butanoyl}-L-glutamic acid-trifluoroacetic acid (1:1)] | 0.81 | 500 | 500 | – | –
CC(C)(C)[C@H](c1cc(-c2cc(F)ccc2F)cn1Cc1ccccc1)N(CCCN)C(=O)CO [M09, N-(3-Aminopropyl)-N-{(1R)-1-[1-benzyl-4-(2,5-difluorophenyl)-1H-pyrrol-2-yl]-2,2-dimethylpropyl}-2-hydroxyacetamide] | – | – | – | 0.03 | 0.03
